This note sets out measurements from patent publication US20200384064A1, “COMPOSITIONS AND METHODS USING HIGH PROTEIN FOR INDUCTION OF AUTOPHAGY” (SOCIETE DES PRODUiTS NESTLE S.A., priority 2017, published 2020).

The test system of this test is LC3 positive punctae in embryo muscles. Put plainly: LC3 positive punctae count in muscles of transgenic LC3-ZsGreen zebrafish embryos. In kind it is in vivo. Here is the method: Autophagy was measured by counting the number of LC3 positive punctae in embryo muscles, normalized by total area. A zebrafish autophagy reporter has been generated by stable expression of the LC3 protein fused to ZsGreen under the control of a skeletal muscle specific promoter, hereafter LC3-ZsGreen. Embryos from outcrossed transgenic zebrafish have been raised at 28° C. under standard laboratory conditions and have been treated at 48 h post-fertilization in 96 well plates (n=24). After 16 hours of treatment embryos were anesthetized with 0.016% tricaine and imaged with ImageXpress confocal system at 20× magnification (Molecular Devices). After acquisition embryos were further treated with NH4Cl 100 mM for 4 h to block LC3 degradation and imaged again. Z stack images were captured for each embryo and maximal projection images were produced. Number of LC3 punctae have been calculated with MetaXpress software (Moleculare Devices) and normalized by fish area.

On to `CC(C)[C@H](N)C(=O)O` [Valine, valine], for which, under “500 μM in fish water, 16 hours of treatment from 48 h post-fertilization”, the “Number of LC3 positive punctae in embryo muscles, normalized by total area” value is on record as “induced an increase of LC3 positive punctae”. The “Autophagic flux (LC3 punctae in presence of the lysosomal inhibitor NH4Cl)” value (500 μM, then NH4Cl 100 mM for 4 h) was “increase of autophagic flux”.
